Like-named read-outs stand apart in the source and are kept apart here. Starred links: 1 amine or outer side, 2 acyl side, 3 side chain; linkers in the order of their positions; H or OH if unused. Positions of bridges follow the written chain, without caps; N, C: chain ends. Non-standard residues stand in square brackets, D forms with d. Residues, ends and D or L forms follow the SMILES beside them. Groups on a side chain read outwards from the residue. *: point of attachment. Trp(1-Me) = Cn1cc(C[C@H](N)C(=O)O)c2ccccc21; C18 diacid = O=C(O)CCCCCCCCCCCCCCCCC(=O)*; γGlu = O=C(O)[C@H](CCC(=O)[*:2])N[*:1]; Sar = CNCC(=O)O
Experiments:
[1] = system: classical complement pathway; test: In vitro haemolysis assay (inhibition of classical complement pathway); type: cell-based, human
Description: The in vitro effect of the compounds of the present invention was assessed by measuring their inhibitory effect of the classical complement pathway in a haemolysis assay. Briefly, compounds of the present invention and reference compounds were dissolved in DMSO and diluted in Tris/Casein Assay Buffer (10 mM Tris, 145 mM NaCl, 0.5 mM MgCl2, 0.15 mM CaCl2), and 0.1% W/V Casein, adjusted to pH 7.4) as 9-point serial dilutions in a 96 well plate. Sensitized sheep red blood cells (RBC) coated with rabbit anti-sheep erythrocyte antiserum (Complement Technology, Inc., TX, USA) were washed in Tris/Casein Assay Buffer. […] from each well of diluted compound was added to a 96-well plate containing 50 μL diluted human serum (Complement Technology, Inc., TX, USA) and incubated for 15 minutes at room temperature. The serum dilution factor was optimized for every serum batch to obtain 70-90% of maximal haemolysis using the protocol. Then 50 μL sensitized sheep red blood cells were added to all wells (10^7 per well). After 30 minutes of incubation at 37 QC with gentle agitation, the reaction was stopped by addition of 50 μL Tris STOP Buffer per well (10 mM EDTA, 10 mM Tris, 145 mM NaCl adjusted to pH 7.4). The RBCs were then removed by centrifugation and the resulting supernatant measured for hemolysis by absorbance at 405 nm. The response was normalized relative to a positive and negative control (vehicle) to calculate the IC50 from the concentration response curve using the 4-parameter logistic (4PL) nonlinear model for curve fitting.

[2] = Solubility test at 10 mg/mL (visual inspection and light scattering); type: physicochemical; details: for Solubility, Condition 1: Acetate pH 4; for Solubility, Condition 2: Acetate pH 5; for Solubility, Condition 3: Phosphate pH 6; for Solubility, Condition 4: Phosphate pH 7; for Solubility, Condition 5: Phosphate pH 7.5
Description: The solubility of compounds was assessed by measuring light scattering over a pH interval from pH 4 to pH 7.5.
Compounds were dissolved in a stock solution of 20 mg/mL in H2O at pH 2.5 or pH 10. These stock solutions were diluted 1:1 with 200 mM buffered solution to reach a final solution of 10 mg/mL compound in 100 mM buffer. The 5 investigated conditions were (1) acetate pH 4.0, (2) acetate pH 5.0, (3) phosphate pH 6.0, (4) phosphate pH 7 and (5) phosphate pH 7.5.
Visual inspection included manually checking the 96 well plate for wells that are clear or non-clear. In addition to this a picture of the 96 well plate is taken.
Absorbance was measured at four wavelengths: 280 nm, 325 nm, 340 nm and 360 nm in an UV transparent 96 well microplate in a SpectraMax 190 microplate reader (Molecular Devices).
The criteria for this was a combination of visual inspection and light scattering not exceeding 0.1 AU, where values below 0.1 AU are good in visually clear samples.

[3] = Table 5, different residues at position 3 of Ac-IC(1)XWQDWGEHRC(1)T-NH2, read-out: IC50, CP hemolysis
[4] = human serum, sensitized sheep red blood cells, Table 4, valine 3 vs isoleucine 3 pairs, read-out: CP hemolysis IC50
[5] = human serum, sensitized sheep red blood cells, Table 3, given as upper bounds, read-out: IC50, inhibition of hemolysis

Work on CC[C@H](C)[C@H](NC(C)=O)C(=O)N[C@H]1CSSC[C@@H](C(=O)N[C@H](C(N)=O)[C@@H](C)O)NC(=O)[C@H](CCCNC(=N)N)NC(=O)[C@H](Cc2c[nH]cn2)NC(=O)[C@H](CCC(=O)O)NC(=O)CNC(=O)[C@H](Cc2c[nH]c3ccccc23)NC(=O)[C@H](CC(=O)O)NC(=O)[C@H](CCC(N)=O)NC(=O)[C@H](Cc2c[nH]c3ccccc23)NC(=O)[C@H](C(C)C)NC1=O [A, reference compound] (Ac-ICVWQDWGEHRCT-NH2; disulfide 2-12) yielded an IC50 [1, 3] of 0.35 µM and an IC50 [1, 4] of 0.35 µM.
Compound CC[C@H](C)[C@H](NC(C)=O)C(=O)N[C@H]1CSSC[C@@H](C(=O)N[C@H](C(N)=O)[C@@H](C)O)NC(=O)[C@H](CCCNC(=N)N)NC(=O)[C@H](Cc2c[nH]cn2)NC(=O)[C@H](Cc2c[nH]cn2)NC(=O)CNC(=O)[C@H](Cc2c[nH]c3ccccc23)NC(=O)[C@H](CC(=O)O)NC(=O)[C@H](CCC(N)=O)NC(=O)[C@H](C(C)C)NC(=O)[C@H](C(C)C)NC1=O [Ac-compstatin, reference compound] has an IC50 ([1]; human serum, sensitized sheep red blood cells, Table 3, cells printed in μM, read-out: IC50, inhibition of hemolysis) greater than 5 µM.
For CC[C@H](C)[C@H](NC(C)=O)C(=O)N[C@H]1CSSC[C@@H](C(=O)N[C@H](C(N)=O)[C@@H](C)O)NC(=O)[C@H](CCCNC(=N)N)NC(=O)[C@H](Cc2c[nH]cn2)NC(=O)[C@H](CO)NC(=O)CNC(=O)[C@H](Cc2c[nH]c3ccccc23)NC(=O)[C@H](CC(=O)O)NC(=O)[C@H](CCC(N)=O)NC(=O)[C@H](Cc2c[nH]c3ccccc23)NC(=O)[C@H](C(C)C)NC1=O [B, reference compound] (Ac-ICVWQDWGSHRCT-NH2; disulfide 2-12), the IC50 [1, 4] was 0.36 µM.
With CC[C@H](C)[C@H](NC(=O)[C@H](C)NC(=O)[C@H](CO)NC(=O)[C@H](CO)NC(=O)[C@H](CCC(=O)O)NC(C)=O)C(=O)N[C@H]1CSSC[C@@H](C(=O)N[C@H](C(N)=O)[C@@H](C)O)NC(=O)[C@H](CCCNC(=N)N)NC(=O)[C@H](Cc2c[nH]cn2)NC(=O)[C@H](CCC(=O)O)NC(=O)CNC(=O)[C@H](Cc2c[nH]c3ccccc23)NC(=O)[C@H](CC(=O)O)NC(=O)[C@H](CCC(N)=O)NC(=O)[C@H](Cc2c[nH]c3ccccc23)NC(=O)[C@H](C(C)C)NC1=O [C, reference compound] (Ac-ESSAICVWQDWGEHRCT-NH2; disulfide 6-16) the IC50 [1, 4] was 0.3 µM.
For CC[C@H](C)[C@H](NC(C)=O)C(=O)N[C@H]1CSSC[C@@H](C(=O)N[C@H](C(N)=O)[C@@H](C)O)NC(=O)[C@H](CCCNC(=N)N)NC(=O)[C@H](Cc2c[nH]cn2)NC(=O)[C@H](CCC(=O)O)NC(=O)CNC(=O)[C@H](Cc2c[nH]c3ccccc23)NC(=O)[C@H](CC(=O)O)NC(=O)[C@H](CCC(N)=O)NC(=O)[C@H](Cc2c[nH]c3ccccc23)NC(=O)[C@H]([C@@H](C)CC)NC1=O [Compound 2] (Ac-ICIWQDWGEHRCT-NH2; disulfide 2-12), the IC50 [1, 3] was less than 0.1 µM, the IC50 [1, 5] was less than 0.1 µM and the IC50 [1, 4] was 0.094 µM.
Work on CC[C@H](C)[C@H](NC(C)=O)C(=O)N[C@H]1CSSC[C@@H](C(=O)N[C@H](C(N)=O)[C@@H](C)O)NC(=O)[C@H](CCCNC(=N)N)NC(=O)[C@H](Cc2c[nH]cn2)NC(=O)[C@H](C)NC(=O)CNC(=O)[C@H](Cc2c[nH]c3ccccc23)NC(=O)[C@H](CC(=O)O)NC(=O)[C@H](CCC(N)=O)NC(=O)[C@H](Cc2c[nH]c3ccccc23)NC(=O)[C@H](C(C)C)NC1=O [Compound 4W9A, reference compound] yielded an IC50 ([1]; human serum, sensitized sheep red blood cells, Table 2, read-out: CP hemolysis IC50) of 0.25 µM and an IC50 [1, 5] of less than 0.5 µM.
CC[C@H](C)[C@H](NC(C)=O)C(=O)N[C@H]1CSSC[C@@H](C(=O)N[C@H](C(N)=O)[C@@H](C)O)NC(=O)[C@H](CCCNC(=N)N)NC(=O)[C@H](Cc2c[nH]cn2)NC(=O)[C@H](CCC(=O)O)NC(=O)CNC(=O)[C@H](Cc2c[nH]c3ccccc23)NC(=O)[C@H](CC(=O)O)NC(=O)[C@H](CCC(N)=O)NC(=O)[C@H](Cc2cn(C)c3ccccc23)NC(=O)[C@H]([C@@H](C)CC)NC1=O [Compound 4] (Ac-ICI[Trp(1-Me)]QDWGEHRCT-NH2; disulfide 2-12) gave an IC50 [1, 5] of less than 0.1 µM.
For CC[C@H](C)[C@H](NC(C)=O)C(=O)N[C@H]1CSSC[C@@H](C(=O)N[C@H](C(N)=O)[C@@H](C)O)NC(=O)[C@H](CCCNC(=N)N)NC(=O)[C@H](Cc2c[nH]cn2)NC(=O)[C@H](CCCCN)NC(=O)CNC(=O)[C@H](Cc2c[nH]c3ccccc23)NC(=O)[C@H](CC(=O)O)NC(=O)[C@H](CCC(N)=O)NC(=O)[C@H](Cc2c[nH]c3ccccc23)NC(=O)[C@H]([C@@H](C)CC)NC1=O [Compound 5] (Ac-ICIWQDWGKHRCT-NH2; disulfide 2-12), the IC50 [1, 5] was less than 0.25 µM.
For CC[C@H](C)[C@@H]1NC(=O)[C@@H](NC(=O)[C@H](Cc2ccc(O)cc2)NC(=O)[C@H](C)NC(=O)[C@H](CO)NC(C)=O)CSSC[C@@H](C(=O)N(C)CC(=O)N[C@@H](CCC(=O)O)C(=O)N[C@@H](CCCCNC(=O)CC[C@H](NC(=O)CNC(=O)[C@H](CCCCN)NC(=O)CC[C@H](NC(=O)CCCCCCCCCCCCCCCCC(=O)O)C(=O)O)C(=O)O)C(N)=O)NC(=O)[C@H](CCCNC(=N)N)NC(=O)[C@H](Cc2c[nH]cn2)NC(=O)[C@H](CCC(=O)O)NC(=O)CNC(=O)[C@H](Cc2c[nH]c3ccccc23)NC(=O)[C@H](CC(=O)O)NC(=O)[C@H](CCC(N)=O)NC(=O)[C@H](Cc2cn(C)c3ccccc23)NC1=O [Compound 105] (Ac-SAYCI[Trp(1-Me)]QDWGEHRC[Sar]EK([γGlu-Gly-Lys-γGlu-C18 diacid])-NH2; disulfide 4-14), the “Solubility, Condition 1” value [2] was “− (“−” denotes lack of solubility at the given condition, as UV absorbance at 340 nm exceeds 0.1 AU and/or it is visibly turbid or contains particles)”, the “Solubility, Condition 2” value [2] was “− (“−” denotes lack of solubility at the given condition, as UV absorbance at 340 nm exceeds 0.1 AU and/or it is visibly turbid or contains particles)” and the “Solubility, Condition 3” value [2] was “+ (“+” denotes solubility at the given condition, as determined by UV absorbance being less than 0.1 AU at 340 nm and the sample being clear when manually inspected)”. For the same compound, the “Solubility, Condition 4” value [2] was “+ (“+” denotes solubility at the given condition, as determined by UV absorbance being less than 0.1 AU at 340 nm and the sample being clear when manually inspected)” and the “Solubility, Condition 5” value [2] was “+ (“+” denotes solubility at the given condition, as determined by UV absorbance being less than 0.1 AU at 340 nm and the sample being clear when manually inspected)”.
For CC[C@H](C)[C@@H]1NC(=O)[C@@H](NC(=O)[C@H](Cc2ccc(O)cc2)NC(=O)[C@H](CCC(=O)O)NC(=O)[C@H](CO)NC(C)=O)CSSC[C@@H](C(=O)N(C)CC(=O)N[C@@H](CCC(=O)O)C(=O)NCC(=O)N[C@@H](CCC(=O)O)C(=O)N[C@@H](CCCCNC(=O)CC[C@H](NC(=O)[C@H](CCCCN)NC(=O)CC[C@H](NC(=O)CCCCCCCCCCCCCCCCC(=O)O)C(=O)O)C(=O)O)C(N)=O)NC(=O)[C@H](CCCNC(=N)N)NC(=O)[C@H](Cc2c[nH]cn2)NC(=O)[C@H](CCC(=O)O)NC(=O)CNC(=O)[C@H](Cc2c[nH]c3ccccc23)NC(=O)[C@H](CC(=O)O)NC(=O)[C@H](CCC(N)=O)NC(=O)[C@H](Cc2cn(C)c3ccccc23)NC1=O [Compound 116] (Ac-SEYCI[Trp(1-Me)]QDWGEHRC[Sar]EGEK([γGlu-Lys-γGlu-C18 diacid])-NH2; disulfide 4-14), the “Solubility, Condition 1” value [2] was “− (“−” denotes lack of solubility at the given condition, as UV absorbance at 340 nm exceeds 0.1 AU and/or it is visibly turbid or contains particles)”, the “Solubility, Condition 2” value [2] was “− (“−” denotes lack of solubility at the given condition, as UV absorbance at 340 nm exceeds 0.1 AU and/or it is visibly turbid or contains particles)” and the “Solubility, Condition 3” value [2] was “+ (“+” denotes solubility at the given condition, as determined by UV absorbance being less than 0.1 AU at 340 nm and the sample being clear when manually inspected)”. For the same compound, the “Solubility, Condition 4” value [2] was “+ (“+” denotes solubility at the given condition, as determined by UV absorbance being less than 0.1 AU at 340 nm and the sample being clear when manually inspected)” and the “Solubility, Condition 5” value [2] was “+ (“+” denotes solubility at the given condition, as determined by UV absorbance being less than 0.1 AU at 340 nm and the sample being clear when manually inspected)”.
